{"source": "paper PMC11246995", "about": "(Frontiers in Molecular Biosciences, 2024)", "test_system": "kidney tissues", "assay": "MALDI MSI ion intensity of renal endogenous metabolites, rotenone-treated vs untreated kidney", "type": "in vivo, rat", "parameters": "key to Ion Intensity in Rotenone-treated Kidney Tissues: N-Acetylhistidine / Ion Intensity in Rotenone-treated Kidney Tissues: O-Phosphotyrosine / Ion Intensity in Rotenone-treated Kidney Tissues: Adenosine diphosphate / Ion Intensity in Rotenone-treated Kidney Tissues: LysoPC(P-16:0) / Ion Intensity in Rotenone-treated Kidney Tissues: LysoPC(16:1) / Ion Intensity in Rotenone-treated Kidney Tissues: LysoPC(16:0) / Ion Intensity in Rotenone-treated Kidney Tissues: LysoPC(17:0) / Ion Intensity in Rotenone-treated Kidney Tissues: LysoPC(18:2) / Ion Intensity in Rotenone-treated Kidney Tissues: L-carnitine / Ion Intensity in Rotenone-treated Kidney Tissues: LysoPC(18:1) / Ion Intensity in Rotenone-treated Kidney Tissues: LysoPC(20:4) / Ion Intensity in Rotenone-treated Kidney Tissues: Phosphorylcholine / Ion Intensity in Rotenone-treated Kidney Tissues: Adenosine monophosphate / Ion Intensity in Rotenone-treated Kidney Tissues: Creatinine / Ion Intensity in Rotenone-treated Kidney Tissues: Histidine / Ion Intensity in Rotenone-treated Kidney Tissues: Phenylalanine / Ion Intensity in Rotenone-treated Kidney Tissues: 3-methylhistidine / Ion Intensity in Rotenone-treated Kidney Tissues: Arginine: ↑ indicates higher ion intensity level than that of the control group; ↓ indicates lower ion intensity level than that of the control group; *p < 0.05; **p < 0.01; ***p < 0.001", "conditions": "vs control; for Ion intensity in rotenone-treated kidney tissues: Glycero-3-phosphocholine / Ion intensity in rotenone-treated kidney tissues: Inosine / Ion intensity in rotenone-treated kidney tissues: LysoPC(18:0): [M+K]+", "method": "Rats were sacrificed 24 h after drug administration, and the kidney and liver organs were immediately removed, flash-frozen with liquid nitrogen, and stored at −80°C in a freezer for long-term storage. The administration and harvesting of organs were conducted by the Pharmalytics Corporation, accredited by the Food and Drug Administration (FDA, Philippines) for bioavailability and bioequivalence research. The animal study was reviewed and approved by the Institutional Animal Care and Use Committee (IACUC) Esteleydes Animal Laboratory and Research Facility and by the Bureau of Animal Industry—Animal Health and Welfare Division in the Philippines.\nTo identify possible metabolic alterations, the m/z values of endogenous compounds found in kidney were extracted from the human metabolome database (http://www.hmdb.ca). The spatial mapping of endogenous compounds was visualized by MALDI HDMS imaging. The detection of metabolite biomarkers was supported by their spatial distribution, normalized ion intensity, m/z accuracy, and similar drift time bins in thin tissues sectioned from the seven identified layers of drug-treated and control rat kidney.\nMALDI HDMS raw data was imported into High-Definition Imaging (HDI) software v1.5 (Waters Corporation, Manchester, United Kingdom). Data processing was performed by detecting 10,000 intense peaks between a mass range of m/z 50–750, a drift time maximum of 200 bins, and a lock mass-based correction at m/z 464.6064. Following data processing, peak picking was carried out and data was normalized based on the total ion current (TIC). The spatial distribution of rotenone and kidney endogenous molecules from the m/z peak list was visualized using the HDI software. […] The tentative identification and assignment of kidney metabolites were based on the metabolites in the human metabolome database (http://www.hmdb.ca). The m/z values and structure of these renal endogenous molecules were verified using PubChem (https://pubchem.ncbi.nlm.nih.gov), ChemDraw Professionals, and by the related literature ([Jung et al., 2016]; [Nizioł et al., 2020]; [Zhu Y. et al., 2022]).\nA multivariate analysis was performed by importing the merged CSV file of processed MALDI image data into EZinfo v3.0 (Waters Corporation, Manchester, United Kingdom). Principal component analysis (PCA) was used to find patterns or trend in the MALDI dataset of the control and drug-treated groups. A peak list of biomolecules was manually created for PCA analysis from the laser-ablated kidney tissue sections. Pareto variance was used to scale the x-variable and to eliminate any bias in this unsupervised algorithm. Similar and far away observations between the dataset were illustrated based on the t[1] and t[2] indices. Meanwhile, the statistical differences between the mass ion intensity of endogenous compounds in two treatment groups were analyzed using the Student’s t-test of GraphPad Prism version 9.4.0 (GraphPad Software Inc., San Diego, CA, United States). The significance threshold was set at p < 0.05 (*), p < 0.01 (**), and p < 0.001 (***).", "key": {"[1]": {"conditions": "rat, single oral 2 mg/kg, 24 h, [M+H]+"}}, "data": [{"smiles": "C=C(C)[C@H]1Cc2c(ccc3c2O[C@@H]2COc4cc(OC)c(OC)cc4[C@@H]2C3=O)O1", "note": "[rotenone, Rotenone]", "values": [{"measurement": "Ion Intensity in Rotenone-treated Kidney Tissues: 3-methylhistidine", "setting": "Table S1, [M+H]+", "value": "↓"}, {"measurement": "Ion Intensity in Rotenone-treated Kidney Tissues: Adenosine diphosphate", "setting": "Table S1, [M+H]+", "value": "↑"}, {"measurement": "Ion Intensity in Rotenone-treated Kidney Tissues: Adenosine monophosphate", "setting": "Table S1, [M+H]+", "value": "↓"}, {"measurement": "Ion Intensity in Rotenone-treated Kidney Tissues: Arginine", "setting": "Table S1, [M+H]+", "value": "↓"}, {"measurement": "Ion Intensity in Rotenone-treated Kidney Tissues: Creatinine", "setting": "Table S1, [M+H]+", "value": "↓"}, {"measurement": "Ion Intensity in Rotenone-treated Kidney Tissues: Histidine", "setting": "Table S1, [M+H]+", "value": "↑"}, {"measurement": "Ion Intensity in Rotenone-treated Kidney Tissues: L-carnitine", "setting": "Table S1, [M+H]+", "value": "↑"}, {"measurement": "Ion Intensity in Rotenone-treated Kidney Tissues: LysoPC(16:0)", "setting": "Table S1, [M+H]+", "value": "↓"}, {"measurement": "Ion Intensity in Rotenone-treated Kidney Tissues: LysoPC(16:1)", "setting": "Table S1, [M+H]+", "value": "↑"}, {"measurement": "Ion Intensity in Rotenone-treated Kidney Tissues: LysoPC(17:0)", "setting": "Table S1, [M+H]+", "value": "↓"}, {"measurement": "Ion Intensity in Rotenone-treated Kidney Tissues: LysoPC(18:1)", "setting": "Table S1, [M+H]+", "value": "↑"}, {"measurement": "Ion Intensity in Rotenone-treated Kidney Tissues: LysoPC(18:2)", "setting": "Table S1, [M+H]+", "value": "↑"}, {"measurement": "Ion Intensity in Rotenone-treated Kidney Tissues: LysoPC(20:4)", "setting": "Table S1, [M+H]+", "value": "↑"}, {"measurement": "Ion Intensity in Rotenone-treated Kidney Tissues: LysoPC(P-16:0)", "setting": "Table S1, [M+H]+", "value": "↓"}, {"measurement": "Ion Intensity in Rotenone-treated Kidney Tissues: N-Acetylhistidine", "setting": "Table S1, [M+H]+", "value": "↓"}, {"measurement": "Ion Intensity in Rotenone-treated Kidney Tissues: O-Phosphotyrosine", "setting": "Table S1, [M+H]+", "value": "↓"}, {"measurement": "Ion Intensity in Rotenone-treated Kidney Tissues: Phenylalanine", "setting": "Table S1, [M+H]+", "value": "↓"}, {"measurement": "Ion intensity in rotenone-treated kidney tissues: Choline", "setting": "Table S1, [M+H]+", "value": "↓***"}, {"measurement": "Ion intensity in rotenone-treated kidney tissues: Sphingomyelin (D18:1/16:0)", "setting": "Table S1, [M+H]+", "value": "↑*"}, {"measurement": "Ion intensity in rotenone-treated kidney tissues: Glycero-3-phosphocholine", "setting": "Table S1", "value": "↓*"}, {"measurement": "Ion intensity in rotenone-treated kidney tissues: Inosine", "setting": "Table S1", "value": "↓**"}, {"measurement": "Ion intensity in rotenone-treated kidney tissues: LysoPC(18:0)", "setting": "Table S1", "value": "↓**"}, {"measurement": "Ion Intensity in Rotenone-treated Kidney Tissues: Phosphorylcholine", "setting": "Table S1, [M]+", "value": "↑"}, {"measurement": "Ion intensity in rotenone-treated kidney tissues: Choline", "setting": "[1]", "value": "↓***"}, {"measurement": "Ion intensity in rotenone-treated kidney tissues: Sphingomyelin (D18:1/16:0)", "setting": "[1]", "value": "↑*"}, {"measurement": "Ion intensity in rotenone-treated kidney tissues: Glycero-3-phosphocholine", "setting": "rat, single oral 2 mg/kg, 24 h", "value": "↓*"}, {"measurement": "Ion intensity in rotenone-treated kidney tissues: Inosine", "setting": "rat, single oral 2 mg/kg, 24 h", "value": "↓**"}, {"measurement": "Ion intensity in rotenone-treated kidney tissues: LysoPC(18:0)", "setting": "rat, single oral 2 mg/kg, 24 h", "value": "↓**"}, {"measurement": "ion intensity of choline in kidney tissues treated with rotenone", "setting": "p < 0.001", "value": "significant decrease"}, {"measurement": "inosine level in treated kidney", "setting": "p < 0.01", "value": "significant reduction"}, {"measurement": "ion intensity levels of LysoPC(18:0) in rotenone-treated kidney tissues", "setting": "p < 0.01", "value": "decreased significantly"}, {"measurement": "GPC level in drug-treated kidney tissues", "setting": "p < 0.05", "value": "decreased significantly"}, {"measurement": "sphingomyelin (D18:1/16:0) level in treated kidney", "setting": "p < 0.05", "value": "significant increase"}]}]}
